Values of other authors, collected in paper PMC8448162, “Single- and Multiple-Ascending-Dose Study of the Safety, Tolerability, and Pharmacokinetics of the Polymyxin Derivative SPR206” (Antimicrobial Agents and Chemotherapy, 2021).

Tests used:
kidney [1] = conditions: in vivo; cited from earlier work
kidney [2] = conditions: mouse model; cited from earlier work
[3] = test system: bacterial burden in CFU/g; parameters: method as in earlier work; conditions: 20 mg/kg, infection models in mice; cited from earlier work

**Q.** With colistin as the substance, how does the “incidence of acute kidney injury” value (kidney [1]) read?
**A.** Its value is “up to 60%”.

**Q.** Which results are given for polymyxin B [reference compound]?
**A.** histopathological changes in the kidney (kidney [2]): all animals; change from baseline in Log10 (bacterial burden in CFU/g) [3]: −2.8 Log10
